# According to patent US20230131248A1, “A SKIN TEST PLATFORM FORMED FROM A COMPOSITE MATERIAL” (Nanyang Technological University, priority 2020, published 2023):
# Test: Penetration of niacinamide and glycerin into silk artificial epidermis (cross-sectional Raman spectroscopy)
# Type: in vitro ADME
# Conditions: applied on surface for 30 min and 4 h
# Protocol: LabRAM Soleil™ Raman spectroscopy was used to measure the penetration of compounds into the silk film. The silk artificial epidermis was first immersed in water for 10 min. Then, the silk artificial epidermis was taken out and wiped with a wiper to remove surface water. Next, niacinamide or glycerin was applied on the surface of the silk artificial epidermis and left to sit for 30 min or 4 h. Finally, the resultant sample was taken for cross-sectional Raman spectroscopy to determine the penetration of the chemicals into silk artificial epidermis.
row,penetration depth into silk artificial epidermis,SMILES
1,penetrate into half-depth,NC(=O)c1cccnc1 [niacinamide]
2,penetrate into half-depth,OCC(O)CO [glycerin]
